Legend:
[1] = target: T1, Protein mono-ADP-ribosyltransferase TIPARP (Homo sapiens, UniProt Q7Z3E1); assay: PARP7 Biochemical Assay
T1 sequence (Q7Z3E1 whole entry): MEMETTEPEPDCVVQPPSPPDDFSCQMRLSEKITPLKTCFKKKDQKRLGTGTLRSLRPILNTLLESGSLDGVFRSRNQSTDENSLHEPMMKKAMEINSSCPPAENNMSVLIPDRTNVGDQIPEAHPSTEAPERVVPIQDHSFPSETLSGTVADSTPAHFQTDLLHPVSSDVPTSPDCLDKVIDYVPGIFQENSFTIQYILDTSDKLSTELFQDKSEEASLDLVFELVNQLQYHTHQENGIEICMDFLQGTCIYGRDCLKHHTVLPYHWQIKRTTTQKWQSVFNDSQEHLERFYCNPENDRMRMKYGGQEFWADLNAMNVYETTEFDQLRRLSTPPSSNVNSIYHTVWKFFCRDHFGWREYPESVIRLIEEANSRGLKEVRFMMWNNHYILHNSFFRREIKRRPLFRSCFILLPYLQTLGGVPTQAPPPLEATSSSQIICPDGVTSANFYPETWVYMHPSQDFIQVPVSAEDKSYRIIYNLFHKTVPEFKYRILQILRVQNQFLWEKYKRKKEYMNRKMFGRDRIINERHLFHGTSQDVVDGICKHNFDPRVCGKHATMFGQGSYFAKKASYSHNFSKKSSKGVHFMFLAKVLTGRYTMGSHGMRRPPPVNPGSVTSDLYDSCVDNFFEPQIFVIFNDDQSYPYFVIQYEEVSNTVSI
Procedure: 23 μL of 100 nM His-GST-PARP7 in PARP buffer for reaction (PBR) (50 mM HEPES pH 7.5, 100 mM NaCl, 4 mM MgCl2, 0.2 mM TCEP) was added to each well of XpressBio GSH-coated 384 well plates and incubated for 1 h at RT. The plate was then washed for 3 times in 50 μL PBST (1×PBS, 0.02% Tween-20), followed by one wash in 1×PBS and one wash PBR. Each wash was incubated for 3 min. After washing, varying concentrations of each inhibitor was pre-incubated with 20 μM (2×) 6-a-NAD+. The solution was added to the plate, diluted to 1× in PBR, and incubated at 30° C. for 90 min. Following the enzymatic reaction, the plate was washed 3 times in PBST, once in PBS for 3 min each wash. The wells were then subjected to 25 μL of click reaction buffer consisting of 100 μM TBTA, 1 mM CuSO4, 100 μM Biotin-N3, 2 mM TCEP made up in 1×PBS. The wells were incubated in click reaction buffer for 30 min at 30° C. The click buffer was removed, and the plate was washed 3 times with PBST and once with PBS as before. The plate was then blocked with 5% BSA in PBST. The plate was then washed 3 times with PBST and once with PBS. To develop, the plate was incubated with 25 μL of 0.05 ng/μL Step-HRP with 0.02% BSA in PBS. The plate was washed 3 times with PBS before developing with QuantaRed per manufacturer directions. Fluorescence (Excitation 550 nm. Emission 620 nm) was immediately read using a Paradigm Plate Reader.

[2] = target: Poly [ADP-ribose] polymerase 2 (Homo sapiens, UniProt Q9UGN5); assay: Protocol for the PARP1 and PARP2 Biochemical Assays
Poly [ADP-ribose] polymerase 2, sequence (Q9UGN5 whole entry): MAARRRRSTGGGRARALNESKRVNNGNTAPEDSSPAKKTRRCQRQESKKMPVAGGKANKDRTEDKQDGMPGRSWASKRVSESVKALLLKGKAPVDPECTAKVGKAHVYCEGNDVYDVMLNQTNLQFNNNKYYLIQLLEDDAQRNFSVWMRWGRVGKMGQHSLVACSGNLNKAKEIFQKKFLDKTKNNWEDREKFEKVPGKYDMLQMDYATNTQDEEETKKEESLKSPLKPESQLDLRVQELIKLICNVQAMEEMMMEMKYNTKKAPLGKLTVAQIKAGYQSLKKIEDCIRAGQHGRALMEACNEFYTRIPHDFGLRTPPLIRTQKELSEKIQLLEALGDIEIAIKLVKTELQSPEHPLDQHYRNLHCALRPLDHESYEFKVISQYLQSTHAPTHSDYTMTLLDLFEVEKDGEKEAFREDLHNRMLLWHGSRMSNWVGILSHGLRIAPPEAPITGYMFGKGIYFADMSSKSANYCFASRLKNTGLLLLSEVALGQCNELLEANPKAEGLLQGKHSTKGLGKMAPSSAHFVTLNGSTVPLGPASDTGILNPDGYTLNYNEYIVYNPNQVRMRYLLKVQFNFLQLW
Procedure: (§1) Each wash was incubated for 3 min. After washing, varying concentrations of each inhibitor was pre-incubated with 20 μM (2×) 6-a-NAD+. 25 μL of the 2×6-a-NAD+/inhibitor mixture was added to the plate with 25 μL of 20 nM of PARP1 or PARP2 in PBR with 0.1 mg/mL Activated DNA (Sigma). PARP final concentration 10 nM. The reaction mixture was incubated at 30° C. for 1 h. The plate was then washed 3 time with PBST and once with PBS. The wells were subjected to a 50 μL click reaction consisting of 100 μM TBTA, 1 mM CuSO4. 100 μM Biotin-N3, 2 mM TCEP made up in 1×PBS at RT for 30 min. The plate was then washed 3 times with PBST before blocking in 100 μL of 1% Milk (Carnation) in PBST at RT for 30 min. The plate was again washed 3 times with PBST and once with PBS before incubation with Strep-HRP (0.05 ng/μL Strep-HRP (Fisher Scientific), 300 ng/μL BSA, 1×PBS) for 30 min at RT. The plate was washed 3 time in PBST and once with PBS before development with QuantaRed (Pierce) per manufacturer directions.

[3] = target: Poly [ADP-ribose] polymerase 1 (Homo sapiens, UniProt P09874); assay: as above
Poly [ADP-ribose] polymerase 1, sequence (P09874 whole entry): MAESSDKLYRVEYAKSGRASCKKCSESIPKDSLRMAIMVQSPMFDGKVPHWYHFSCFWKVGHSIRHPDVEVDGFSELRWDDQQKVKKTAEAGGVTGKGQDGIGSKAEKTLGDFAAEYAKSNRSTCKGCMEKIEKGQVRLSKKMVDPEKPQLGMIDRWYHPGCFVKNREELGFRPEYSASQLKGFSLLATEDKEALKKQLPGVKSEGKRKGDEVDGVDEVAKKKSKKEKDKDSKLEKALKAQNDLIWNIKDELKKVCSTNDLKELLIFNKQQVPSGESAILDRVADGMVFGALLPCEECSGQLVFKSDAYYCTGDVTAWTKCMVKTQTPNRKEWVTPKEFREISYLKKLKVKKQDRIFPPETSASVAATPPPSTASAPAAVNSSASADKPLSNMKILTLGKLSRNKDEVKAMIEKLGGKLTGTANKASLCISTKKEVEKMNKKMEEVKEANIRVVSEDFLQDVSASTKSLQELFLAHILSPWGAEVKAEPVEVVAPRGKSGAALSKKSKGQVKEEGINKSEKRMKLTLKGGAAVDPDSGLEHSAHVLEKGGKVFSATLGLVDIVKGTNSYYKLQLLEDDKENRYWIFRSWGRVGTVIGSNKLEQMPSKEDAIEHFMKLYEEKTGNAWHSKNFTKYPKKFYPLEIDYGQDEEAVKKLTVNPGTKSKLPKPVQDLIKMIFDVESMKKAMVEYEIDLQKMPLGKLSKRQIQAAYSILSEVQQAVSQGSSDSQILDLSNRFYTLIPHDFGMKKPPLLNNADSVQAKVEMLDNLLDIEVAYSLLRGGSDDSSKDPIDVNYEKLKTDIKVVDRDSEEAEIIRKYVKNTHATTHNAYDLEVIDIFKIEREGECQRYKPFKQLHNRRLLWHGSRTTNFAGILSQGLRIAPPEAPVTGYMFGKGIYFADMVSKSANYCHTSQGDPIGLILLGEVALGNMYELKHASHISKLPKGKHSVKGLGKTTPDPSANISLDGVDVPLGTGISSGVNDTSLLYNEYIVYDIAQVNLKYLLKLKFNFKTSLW
Procedure: as §1

IC50 [1] [nM]	IC50 [2] [nM]	IC50 [3] [nM]	Structure (SMILES)
< 50	–	–	CCc1ccc2c(=O)[nH]nc(Cc3ccc(F)c(C(=O)N4CCN(c5ncc(C(F)(F)F)cn5)CC4)c3)c2c1 [US20260055079, Example 43]
< 50	> 2000	> 2000	N#Cc1cnc(N2CCN(C(=O)c3cc(Cc4n[nH]c(=O)c5ccc(OC6CCC6)cc45)ccc3F)CC2)cc1C(F)(F)F [US20260055079, Example 132]

Further lines, the compound ahead of its results:

Structure (SMILES)	IC50 [1] [nM]	IC50 [2] [nM]	IC50 [3] [nM]
N#Cc1ccc(N2CCN(C(=O)c3cc(Cc4n[nH]c(=O)c5ccc(CCC(F)(F)F)cc45)ccc3F)CC2)nc1 [US20260055079, Example 25]	< 50	–	–
N#Cc1ccc(N2CCN(C(=O)c3cc(Cc4n[nH]c(=O)c5ccc(/C=C/C(F)(F)F)cc45)ccc3F)CC2)nc1 [US20260055079, Example 27]	< 50	–	–
CC#Cc1ccc2c(=O)[nH]nc(Cc3ccc(F)c(C(=O)N4CCN(c5ncc(C(F)(F)F)cn5)CC4)c3)c2c1 [US20260055079, Example 48]	–	> 2000	–

Reference: BindingDB's records for patent US20260055079 (Azkarra Therapeutics, 2026)
